pEC50: −log10 of the molar value.
target: Metabotropic glutamate receptor 5 (Homo sapiens, UniProt P41594); assay: Positive modulation of human recombinant mGluR5 expressed in HEK293A cells by calcium based FLIPR assay; type: functional, cell-based, HEK293-A
Sequence (P41594 whole entry): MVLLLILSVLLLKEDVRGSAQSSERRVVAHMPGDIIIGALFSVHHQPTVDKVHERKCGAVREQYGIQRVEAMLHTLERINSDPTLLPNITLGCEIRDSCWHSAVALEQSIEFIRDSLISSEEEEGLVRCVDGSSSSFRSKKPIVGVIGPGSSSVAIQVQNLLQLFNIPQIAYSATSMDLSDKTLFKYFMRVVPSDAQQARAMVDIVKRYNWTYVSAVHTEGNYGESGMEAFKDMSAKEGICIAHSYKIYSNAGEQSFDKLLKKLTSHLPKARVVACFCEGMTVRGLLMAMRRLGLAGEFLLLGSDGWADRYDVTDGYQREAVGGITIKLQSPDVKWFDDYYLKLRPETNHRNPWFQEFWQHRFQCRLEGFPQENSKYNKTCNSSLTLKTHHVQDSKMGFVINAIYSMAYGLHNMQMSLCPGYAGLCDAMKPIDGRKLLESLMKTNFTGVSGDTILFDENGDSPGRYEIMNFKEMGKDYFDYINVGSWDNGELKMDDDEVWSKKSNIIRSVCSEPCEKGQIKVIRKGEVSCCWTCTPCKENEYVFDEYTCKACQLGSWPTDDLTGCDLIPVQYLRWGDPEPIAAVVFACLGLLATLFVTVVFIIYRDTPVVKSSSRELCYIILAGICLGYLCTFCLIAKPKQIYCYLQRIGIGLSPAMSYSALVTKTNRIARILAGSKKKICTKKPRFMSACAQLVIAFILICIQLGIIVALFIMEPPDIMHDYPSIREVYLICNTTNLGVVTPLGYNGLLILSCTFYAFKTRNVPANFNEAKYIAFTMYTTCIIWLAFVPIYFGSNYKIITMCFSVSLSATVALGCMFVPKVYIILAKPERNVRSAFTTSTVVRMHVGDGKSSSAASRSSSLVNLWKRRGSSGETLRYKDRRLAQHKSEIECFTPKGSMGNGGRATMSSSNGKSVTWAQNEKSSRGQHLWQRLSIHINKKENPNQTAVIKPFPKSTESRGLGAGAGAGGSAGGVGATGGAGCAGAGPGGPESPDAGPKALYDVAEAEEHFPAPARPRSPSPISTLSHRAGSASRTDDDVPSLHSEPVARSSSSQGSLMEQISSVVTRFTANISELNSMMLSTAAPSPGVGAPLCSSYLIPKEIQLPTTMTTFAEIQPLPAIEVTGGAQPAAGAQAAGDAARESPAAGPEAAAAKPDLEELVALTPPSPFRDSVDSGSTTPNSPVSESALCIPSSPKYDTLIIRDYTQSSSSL

pEC50	Compound
6.07	Cc1cc(-c2cn(CC(=O)N3CCN(c4cccnn4)CC3)c(-c3ccccc3)n2)ccc1F
7.05	CC1=NC2CCN(C(=O)Cn3cc(-c4ccc(F)c(C)c4)nc3-c3ccccc3)CC2O1 (centres undefined)
7.40	CC1=NC2CCN(C(=O)Cn3cc(-c4ccc(F)c(C)c4)nc3-c3ccc(F)cc3)CC2O1 (centres undefined)
7.28	Cc1cc(-c2cn(CC(=O)N3CCN(c4ccccn4)CC3)c(-c3ccc(F)cc3)n2)ccc1F

Source: ChEMBL document CHEMBL2429817, “Trisubstituted imidazoles as positive modulators of metabotropic glutamate receptor subtype 5” (ACS Med Chem Lett, 2013)
